Patent US20210108198A1, “APPLICATION OF COMPOUND OR TRADITIONAL CHINESE MEDICINE EXTRACT IN PREPARATION OF NUCLEIC ACID DELIVERY AGENT AND RELATED PRODUCTS THEREOF” (INSTITUTE OF BASIC MEDICAL SCIENCES CHINESE ACADEMY OF …, priority 2017, published 2021)
Entries after “also recorded” stand apart in the source; their conditions may differ.

What was measured:
[1] = tested on: A549 cells; experiment: Digital PCR (ddPCR) detection of the efficiency of nucleic acid delivery by lipid; assay type: cell-based, human
Method: (§1) 2.2 Experimental method: the total cellular RNA was collected and extracted by TRIzol lysis buffer according to the above methods, and reverse transcribed to cDNA using High capacity cRNA Reverse Transcription Kit, and the cDNA from different groups was subject to digital PCR reaction. Refering to the QX200 Droplet Reader and QuantaSoft Software manual for the protocols, the results were analyzed using QuantaSoft software.
as §1, with “method:” for “method: the”, “total” for “total cellular”, “method,” for “methods,”, “subjected” for “subject”, “Refer” for “Refering”, “protocols;” for “protocols,”
(§2) 2.2 Experimental method: Total RNA was collected and extracted by TRIzol lysis buffer according to the above method, and reverse transcribed to cDNA using TaqMan™ MicroRNA Reverse Transcription KitHigh, and the cDNA from different groups was subjected to digital PCR reaction. Refer to the QX200 Droplet Reader and QuantaSoft Software manual for the protocols; the results were analyzed using QuantaSoft software.
as §2, with “reversed” for “reverse transcribed”, “High capacity cRNA” for “TaqMan™ MicroRNA”, “Kit,” for “KitHigh,”

[2] = tested on: A549 cell; experiment: RT-qPCR detection of nucleic acid delivered by lipid into A549 cells; assay type: cell-based, human
Method: (§3) 3.1 NCI-N87 cell (gastric cancer cell), MRC-5 cell (lung fibroblast), A549 cell (lung cancer cell) were cultured to logarithmic growth phase, and then plated to a six-well plate at cell density of 1×10^6/2 mL medium/well; MRC-5 cell was cultured in Eagle's MEM medium (MEM, Gibco); A549 cell was cultured in Ham's F-12 medium (HyClone); NCI-N87 cell was cultured in RPMI-1640 medium (HyClone); followed by incubation overnight at 37° C., and the follow-up experiments were performed after the cells were attached to the walls.
4) Lipid nucleic acid mixture: the mixture of lipid and HJT-sRNA-m7 prepared from the step 2 were added into cells and mixed, and the final concentration of RNA was kept at 200 nM.
(§4) 3.3 After co-incubation with the small RNA for 3 hours, the cells were washed 2-3 times with PBS. The cells were harvested with TRIzol lysis buffer, and the total RNA was extracted. The abundance of small RNA that entered cells was detected by RT-qPCR, and the localization of RNA was detected by fluorescence in situ hybridization; protocols of each detection method were as follows:
3.3.1 RT-qPCR Detection of Small RNA (Taqman Probe Method)
(§5) 3.3.2 RT-qPCR Detection of Small RNA (SYBR Green Dye Method)
Mixtures of soybean PC, lipid No. 11 (18:0/18:2) and lipid No. 12 (16:0/18:2), and various small RNA (see below Table 3) were prepared by the reverse evaporation method and then added into A549 cell line (the final concentration of sRNA was 200 nM); the negative control group (control) was directly added with the same concentration of sRNA; the positive control group (RNAimax) was transfected with Lipofectamine RNAimax (transfection reagent 6 μl/well). The abundance of sRNA in the cells was detected by Taqman probe after 3 hours, and the relative expression level of sRNA was calculated by 2-ΔCt method.
3.1.3 After co-incubation with cells for 12-24 hours, the cells were washed twice with PBS. The cells were harvested with TRIzol lysis buffer (purchased from Sigma-Aldrich), and total RNA was extracted. The abundance of HJT-sRNA-m7 that entered the cells was detected by RT-qPCR; the protocols were as follows:
4368813) was used to reverse transcribe sRNA to cDNA by stem-loop method (see, e.g. Real-time quantification of microRNAs by stem-loop RT-PCR, Nucleic Acids Res. 2005 Nov. 27; 33(20):e179, incorporated by reference herein).

[3] = tested on: A549 cells; experiment: Flow cytometry detection of the efficiency of nucleic acid delivery by lipid; assay type: cell-based, human; conditions: boiling method
Method: Experimental materials: A549 cells (purchased from the Cell Center of the Chinese Academy of Medical Sciences), FAM-sRNA (purchased from Ribobio Biotechnology Co., Ltd.), lipid No. 41, Accuri® C6 instrument (purchased from BD, USA).
Experimental methods: PGY-sRNA-6-FAM was dissolved in 100 μl water, mixed with 4 μl lipid, and prepared by boiling method. Then the mixture was dropped into A549 cells, and after 6 hours of co-incubation, the samples were collected for detection as follows: firstly wash three times with PBS, then digest with trypsin for 3 minutes and remove trypsin, wash with PBS again and then blow down the cells. The detection was performed using Accuri® C6 instrument.
Experimental Method: PGY-sRNA-6-FAM was dissolved in 100 μl water, and mixed with 4 μl lipid, and prepared into lipid-sRNA mixture by boiling method. Then, the mixture was dropped into A549 cells, and after 6 hours of co-incubation, the samples were collected and washed three times with PBS, then digested with trypsin into single cells, washed with re-suspended with PBS and then blown down for Accuri® C6 instrument detection.
Experimental Method: FAM-sRNA was dissolved in 100 μl water, and mixed with 4 μl lipid, prepared by boiling method. Then, the lipid-sRNA mixture was dropped into A549 cells, and after 6 hours of co-incubation, the samples were collected and washed three times with PBS, then digested into single cells with trypsin, re-suspended with PBS and then blown down for Accuri® C6 instrument detection.

[4] = In vivo delivery of single-stranded sRNA by single lipid via gavage (blood, stomach, small intestine, liver); design: species or system C57 mice; conditions: 10 μl lipid, 1 nmol each sRNA (PGY-sRNA-23/-26/-32), heating method, 6 hours or 12 hours after administration
Excerpt: Tissues sampled: live/stomach/small intestine.

[5] = tested on: A549 cells; experiment: Confocal fluorescence microscopy of nucleic acid delivered by lipid in cells; assay type: cell-based, human; conditions: 4 μl lipid, boiling method; 6 hours of co-incubation
Method: Experimental materials: A549 cells (purchased from the Cell Center of the Chinese Academy of Medical Sciences), PGY-sRNA-6-Cy3 (purchased from Ribobio Biotechnology Co., Ltd.), lipid No. 41, Zeiss LSM780 (purchased from Zeiss, Germany), Alexa Fluor® 488 phalloidin (purchased from Invitrogen, USA), DAPI (purchased from Invitrogen, USA), paraformaldehyde (purchased from sigma, USA).
(§6) Experimental methods: PGY-sRNA-6-FAM was dissolved in 100 μl water, mixed with 4 μl lipid, and prepared by the boiling method. Then the mixture was dropped into A549 cells, and after 6 hours of co-incubation, the samples were washed three times with PBS, fixed with 4% paraformaldehyde, washed three times with PBS, stained with Alexa Fluor® 488 phalloidin for 30 min, washed 3 times with PBS, and stained with DAPI for 5 min, washed with PBS, and then sealed.
as §6, with “method:” for “methods:”, “water, and” for “water,”, “by” for “by the”, “Then,” for “Then”, “PBS washed,” for “washed with PBS,”

[6] = tested on: MRC-5 cell; experiment: RT-qPCR detection of nucleic acid delivered by lipid into MRC-5 cells; assay type: cell-based
Method: as §3, §4, §5
The stem-loop primer used in the reverse transcription process was synthesized by Beijing Tsingke Biotechnology Co., Ltd. (U6 RT primer: […] ATG (SEQ ID NO: 21); HJT-sRNA-m7 RT stem-loop primer: […] AA (SEQ ID NO: 22)).
Both the forward and reverse primers of the amplification reaction were designed and synthesized by Beijing Tsingke Biotechnology Co., Ltd. (U6 F Primer: […] (SEQ ID NO: 23), U6 R Primer: […] (SEQ ID NO: 24), HJT-sRNA-m7 F Primer: […] (SEQ ID NO: 25), HJT-sRNA-m7 R Primer: […] (SEQ ID NO: 26)).
3) The relative expression level was calculated by 2-ΔCt method.
3.1.3 After co-incubation with cells for 12-24 hours, the cells were washed twice with PBS. The cells were harvested with TRIzol lysis buffer (purchased from Sigma-Aldrich), and total RNA was extracted.

[7] = reverse evaporation method, 6 hours (No. 39: 6 hours, 12 hours)
[8] = boiling (heating) method, RNA 100 nM, 2.5 μL single lipid, 12 hours
[9] = boiling (heating) method, RNA 100 nM, 12 hours (No. 37: 3 hours)

CCCCCC/C=C\CCCCCCCCCC(=O)O[C@H](COC(=O)CCCCCCC/C=C\CCCCCC)COP(=O)(O)OCCN [No. 39, (2-aminoethoxy)[(2R)-3-[(9Z)-hexadec-9-enoyloxy]-2-[(11Z)-octadec-11-enoyloxy]propoxy] phosphinic acid]
delivery of HJT-sRNA-m7 dsRNA (ddPCR) [1, 7]: could effectively deliver HJT-sRNA-m7 dsRNA into A549 cells

CCCCCCCC/C=C\CCCCCCCCCCCCCC(=O)O[C@H](COC(=O)CCCCCCCCCCCCCC)COP(=O)(O)OCCN [No. 64, 1-pentadecanoyl-2-nervonoyl-sn-glycero-3-phosphoethanolamine]
delivery of double-stranded HJT-sRNA-m7 by single lipid (real-time PCR) [2, 8]: delivered HJT-sRNA-m7 double-stranded RNA into A549 cells | delivery effect relative to RNAiMAX (real-time PCR) ([2]; double-stranded HJT-sRNA-m7 100 nM, boiling method, 12 hours, FIG. 96): about 3 times that of RNAiMAX | delivery of double-stranded HJT-sRNA-m7 by single lipid (real-time PCR) ([2]; reverse evaporation method, RNA 100 nM, 12 hours): delivered HJT-sRNA-m7 double-stranded RNA into A549 cells | efficiency of delivering PGY-sRNA-6 single-stranded RNA relative to RNAiMAX (flow cytometry) ([3]; 6 hours, FIG. 97): ½ | entry of single-stranded small RNA into mouse blood (RT-qPCR) [4]: could effectively deliver sRNA single-stranded nucleic acid into mouse blood via oral administration; also recorded: the delivery effect was better than POPC and Lipofectamine RNAiMAX | entry of PGY-sRNA-6-Cy3 observed under the confocal microscopy [5]: could effectively deliver single-stranded RNA into A549 cells

CCCCCC/C=C\CCCCCCCC(=O)O[C@H](COC(=O)CCCCCCCCCCCCCCC)COP(=O)(O)OCCN [No. 38, (2-aminoethoxy)[(2R)-2-[(9Z)-hexadec-9-enoyloxy]-3-(hexadecanoyloxy)propoxy]phosphinic acid]
delivery of double-stranded HJT-sRNA-m7 by single lipid (real-time PCR) [2, 8]: delivered double-stranded RNA into A549 and MRC-5 cells | delivery of single-stranded HJT-sRNA-m7 by single lipid (real-time PCR) [2, 9]: the efficiency of delivery was much higher than that of RNAiMAX | delivery of HJT-sRNA-m7 dsRNA (ddPCR) ([1]; boiling method, 6 hours): could effectively deliver HJT-sRNA-m7 dsRNA into A549 cells | delivery of HJT-sRNA-m7 dsRNA (ddPCR) [1, 7]: could effectively deliver HJT-sRNA-m7 dsRNA into A549 cells | efficiency in delivering PGY-sRNA-6 single-stranded RNA (flow cytometry) ([3]; PGY-sRNA-6-FAM, 4 μl lipid, 6 hours of co-incubation): 72.5% | efficiency of nucleic acid delivery by flow cytometry, in words ([3]; PGY-sRNA-6-FAM, 6 hours): close to that of the positive control RNAiMAX | entry of single-stranded small RNA into mouse blood (RT-qPCR) [4]: could effectively deliver sRNA single-stranded nucleic acid into mouse blood via oral administration; also recorded: the delivery effect was better than POPC and Lipofectamine RNAiMAX | entry of PGY-sRNA-6-Cy3 observed under the confocal microscopy [5]: could effectively deliver double-stranded nucleic acid into A549 cells | amount of HJT-sRNA-m7 that entered the cells (RT-qPCR) ([6]; Example 2-1, FIG. 33, double-stranded 100 nM, boiling method 100° C. 30 min, 24 hours): effectively delivered nucleic acids into MRC-5 cells, showing an effect close to the transfection reagent RNAiMAX | delivery of double-stranded HJT-sRNA-m7 by single lipid (real-time PCR) ([6]; boiling (heating) method, RNA 100 nM): delivered double-stranded RNA into A549 and MRC-5 cells; also recorded: about twice that of RNAiMAX | delivery of single-stranded HJT-sRNA-m7 by single lipid (real-time PCR) [6, 9]: the efficiency of delivery was much higher than that of RNAiMAX
